Reference: patent US11653650B2, “Fungicide composition and method for controlling disease of crop” (ISHIHARA SANGYO KAISHA, LTD., priority 2017, dated 2023)
Where two headings read alike, the source gives them in different places.

How the values were obtained:
[1] = test system: pear scab (Japanese pear scab); test: Effect test against pear scab (Japanese pear scab), effect on leaves, sprayed adult pear trees; format: in vivo, pear (cultivar: Housui); details: sprayed four times
Procedure: Test Example 1: Effect Test Against Pear Scab (Japanese Pear Scab) (Effect on Leaves) A given amount of a chemical was sprayed on adult trees of pear (cultivar: Housui) with a pressurized sprayer in an amount sufficient to drip from the leaves. The spraying was performed four times in total at intervals of 8 to 10 days, about 50 leaves per area were investigated about the presence or absence of the onset of the disease days after the final spraying, and the ratio of the leaves with the onset of the disease and the disease control value were calculated (in triplicate). In addition, the theoretical value (of the disease control value) by mixing was also calculated according to the Colby's formula. Disease control value=(1−a/b)×100 wherein a: Mean ratio of leaves with the onset of the disease in the treated area, b: Mean ratio of leaves with the onset of the disease in the untreated area; Colby's formula=(X+Y)−XY/100 wherein X: Disease control value when using isofetamid alone, Y: Disease control value when using mandestrobin alone. When the actually measured value is higher than the theoretical value, the fungicide composition of the present invention has a synergistic effect on pear scab (Japanese pear scab).

[2] = test system: pear scab (Japanese pear scab); test: Effect test against pear scab (Japanese pear scab), effect on fruits, sprayed adult pear trees; format: in vivo, pear (cultivar: Housui); details: 8 days after the final spraying
Procedure: Test Example 2: Effect Test Against Pear Scab (Japanese Pear Scab) (Effect on Fruits) A given amount of a chemical was sprayed on adult trees of pear (cultivar: Housui) with a pressurized sprayer in an amount sufficient to drip from the leaves and fruits. The spraying was performed four times in total at intervals of 6 to 11 days, about 50 fruits per area were investigated about the presence or absence of the onset of the disease 8 days after the final spraying, and the ratio of the fruits with the onset of the disease and the disease control value were calculated (in triplicate). In addition, the theoretical value (of the disease control value) by mixing was also calculated according to the Colby's formula. Disease control value=(1−a/b)×100 wherein a: Mean ratio of fruits with the onset of the disease in the treated area, b: Mean ratio of fruits with the onset of the disease in the untreated area.

[3] = test system: Pear scab (Japanese pear scab) fungus, Venturia nashicola; test: Inhibitory effect test for hyphal elongation on PDA, 20° C., 25 days; format: cell-based; details: read-out: Inhibition rate (%)
Procedure: Test Example 3: Inhibitory Effect Test for Hyphal Elongation (Pear Scab (Japanese Pear Scab) Fungus, Venturia nashicola) A fungal flora (diameter: 4 mm) obtained by pre-cultivation was transplanted on PDA (potato dextrose agar medium) containing a given concentration of a chemical and then cultured at room temperature of 20° C. for 25 days, followed by measuring the diameter (mm) of the grown flora to determine the hyphal elongation inhibition rate. In addition, theoretical values (of the hyphal elongation inhibition rate) were calculated according to the Colby's calculation formula based on the above determined hyphal elongation inhibition rate, and presented in parenthesis in the table. Inhibition rate=(1−a/b)×100 wherein a: “Mean diameter (mm) of flora in the treated area”—4, b: “Mean diameter (mm) of flora in the untreated area”—4 Colby's formula=(X+Y)−XY/100 X: Inhibition rate when using isofetamid alone Y: Inhibition rate when using mandestrobin alone. When the experimental value is higher than the theoretical value, the fungicide composition of the present invention has a synergistic effect on pear scab (Japanese pear scab) fungus.

[4] = test system: Apple anthracnose (apple bitter rot) fungus, Colletotrichum gloeosporioides; test: Inhibitory effect test for hyphal elongation on PDA, 20° C., 2 days; format: cell-based; details: read-out: Inhibition rate (%)
Procedure: (§1) Test Example 4: Inhibitory Effect Test for Hyphal Elongation (Apple Anthracnose (Apple Bitter Rot) Fungus, Colletotrichum gloeosporioides) A fungal flora (diameter: 4 mm) obtained by pre-cultivation was transplanted on PDA containing a given concentration of a chemical and then cultured at room temperature of 20° C. for 2 days, followed by measuring the diameter of the grown flora in the same manner as described in Test Example 3 to determine the hyphal elongation inhibition rate. In addition, theoretical values (of the hyphal elongation inhibition rate) were calculated according to the Colby's calculation formula based on the above determined hyphal elongation inhibition rate, and presented in parenthesis in the table.

[5] = test system: Apple anthracnose (apple bitter rot) fungus, Colletotrichum acutatum; test: as above; format: cell-based; details: read-out: Inhibition rate (%)
Procedure: as §1, with “Test Example 5: Inhibitory Effect” for “Test Example 4: Inhibitory Effect”, “Fungus, Colletotrichum acutatum) A fungal” for “Fungus, Colletotrichum gloeosporioides) A fungal”, “the hyphal elongation, inhibition rate.” for “the hyphal elongation inhibition rate.”

[6] = Mandestrobin 0.01 ppm alone (Isofetamid 0 ppm)
[7] = Mandestrobin 0.1 ppm alone (Isofetamid 0 ppm)
[8] = Mandestrobin 1 ppm alone (Isofetamid 0 ppm)
[9] = Mandestrobin 10 ppm alone (Isofetamid 0 ppm)
[10] = Isofetamid 0.01 ppm alone (Mandestrobin 0 ppm)
[11] = Isofetamid 0.1 ppm alone (Mandestrobin 0 ppm)
[12] = Isofetamid 1 ppm alone (Mandestrobin 0 ppm)
[13] = Isofetamid 10 ppm alone (Mandestrobin 0 ppm)

In the case of `CNC(=O)C(OC)c1ccccc1COc1cc(C)ccc1C` (racemic) [Mandestrobin, (RS)-2-methoxy-N-methyl-2-[α-(2,5-xylyloxy)-o-tolyl]acetamide], the Disease control value ([1]; Mandestrobin 70 ppm) is reported as 65.9, the “Ratio of leaves with onset of disease (%)” value (from here on “Ratio of leaves … (%)”) ([1]; Mandestrobin 70 ppm) is reported as 31.7% and the Disease control value ([1]; Mandestrobin 140 ppm) is reported as 74.9. The “Ratio of leaves … (%)” value ([1]; Mandestrobin 140 ppm) was 23.3%, the Disease control value ([2]; Mandestrobin 70 ppm) was 77.5 and the “Ratio of fruits with onset of disease (%)” value (“Ratio of fruits … (%)” for short) ([2]; Mandestrobin 70 ppm) was 10.3%. For the same compound, the Disease control value ([2]; Mandestrobin 100 ppm) was 90.1, the “Ratio of fruits … (%)” value ([2]; Mandestrobin 100 ppm) was 4.5% and the Disease control value ([2]; Mandestrobin 140 ppm) was 93.4. For the same compound, the “Ratio of fruits … (%)” value ([2]; Mandestrobin 140 ppm) was 3.0%, the inhibition at 0.01 ppm [3, 6] was 0% and the inhibition at 0.1 ppm [3, 7] was 12.8%. The inhibition at 1 ppm [3, 8] was 27.7%, the inhibition at 10 ppm [3, 9] was 44.7% and the inhibition at 0.01 ppm [4, 6] was 1.9%. The inhibition at 0.1 ppm [4, 7] was 3.8%, the inhibition at 1 ppm [4, 8] was 14.1% and the inhibition at 10 ppm [4, 9] was 33.3%. For the same compound, the inhibition at 0.01 ppm [5, 6] was 0%, the inhibition at 0.1 ppm [5, 7] was 0% and the inhibition at 1 ppm [5, 8] was 42.6%. It also gave an inhibition at 10 ppm [5, 9] of 55.4%.

`Cc1cc(OC(C)C)ccc1C(=O)C(C)(C)NC(=O)c1sccc1C` [Isofetamid, N-[1,1-dimethyl-2-(4-isopropoxy-o-tolyl)-2-oxoethyl]-3-methylthiophene-2-carboxamide] was tested, and the Disease control value ([1]; Isofetamid 90 ppm) was 66.3, the “Ratio of leaves … (%)” value ([1]; Isofetamid 90 ppm) was 31.3% and the Disease control value ([1]; Isofetamid 190 ppm) was 56.4. For the same compound, the “Ratio of leaves … (%)” value ([1]; Isofetamid 190 ppm) was 40.5%, the Disease control value ([2]; Isofetamid 93 ppm) was 83.4 and the “Ratio of fruits … (%)” value ([2]; Isofetamid 93 ppm) was 7.6%. The Disease control value ([2]; Isofetamid 134 ppm) was 77.5, the “Ratio of fruits … (%)” value ([2]; Isofetamid 134 ppm) was 10.3% and the Disease control value ([2]; Isofetamid 187 ppm) was 62.3. The “Ratio of fruits … (%)” value ([2]; Isofetamid 187 ppm) was 17.2%, the inhibition at 0.01 ppm [3, 10] was 0% and the inhibition at 0.1 ppm [3, 11] was 8.5%. It also gave an inhibition at 1 ppm [3, 12] of 49.6%, an inhibition at 10 ppm [3, 13] of 100% and an inhibition at 0.01 ppm [4, 10] of 0%. For the same compound, the inhibition at 0.1 ppm [4, 11] was 0%, the inhibition at 1 ppm [4, 12] was 0% and the inhibition at 10 ppm [4, 13] was 2.6%. For the same compound, the inhibition at 0.01 ppm [5, 10] was 6.9%, the inhibition at 0.1 ppm [5, 11] was 3% and the inhibition at 1 ppm [5, 12] was 0%. For the same compound, the inhibition at 10 ppm [5, 13] was 24.8%.
